From DBAASP
≈ marks a conversion by molar mass, not a printed value.

Legend:
Experiment in all cases: ≥ marks a high value that may be exact or a test limit, other limits are often not marked, values filed in µg/mL are converted to µM
[1] = system: Staphylococcus aureus ATCC 25923
[2] = system: Candida albicans ATCC 20032
[3] = system: Bacillus subtilis ATCC 6633
[4] = system: Escherichia coli ATCC 25922
[5] = system: Pseudomonas aeruginosa PAO1
[6] = system: Pseudomonas aeruginosa 910
[7] = system: Pseudomonas aeruginosa 253
[8] = system: Pseudomonas aeruginosa 919
[9] = system: Staphylococcus aureus ATCC 6538P
Escherichia coli JM109 = system: Escherichia coli JM109
Staphylococcus aureus = system: Staphylococcus aureus
[10] = system: Candida albicans ATCC 10231
[11] = system: Staphylococcus aureus Cowan 1
Staphylococcus capitis 1 = system: Staphylococcus capitis 1
[12] = system: Yersinia pseudotuberculosis YPIII
Bacillus megaterium Bm11 = system: Bacillus megaterium Bm11
[13] = system: Streptococcus gordonii Challis DL1
Streptococcus mutans = system: Streptococcus mutans
[14] = system: Streptococcus sanguinis NY101
[15] = system: Veillonella atypica PK1910
[16] = system: Lacticaseibacillus casei ATCC 4646
[17] = system: Streptococcus mitis ATCC 903
[18] = system: Escherichia coli ATCC 11775
Botrytis cinerea = system: Botrytis cinerea
[19] = system: Staphylococcus aureus ATCC 12600

`CC[C@H](C)[C@H](NC(=O)CN)C(=O)NCC(=O)NCC(=O)N[C@@H](CCCCN)C(=O)N[C@H](C(=O)N[C@@H](CC(C)C)C(=O)NCC(=O)NCC(=O)N[C@@H](CC(C)C)C(=O)N[C@@H](CCCN=C(N)N)C(=O)N[C@H](C(=O)N[C@@H](C)C(=O)N[C@@H](CC(C)C)C(=O)N[C@@H](CCCCN)C(=O)NCC(=O)N[C@@H](C)C(=O)N[C@@H](C)C(=O)N[C@@H](CCCCN)C(=O)N[C@@H](CCC(=O)O)C(=O)N[C@@H](CC(C)C)C(=O)N[C@@H](C)C(=O)N[C@@H](C)C(=O)N[C@H](C(=O)N[C@@H](Cc1ccc(O)cc1)C(=O)N[C@@H](CC(C)C)C(=O)N[C@@H](Cc1cnc[nH]1)C(N)=O)[C@@H](C)O)[C@@H](C)O)[C@@H](C)CC` [GIGGKILGGLRTALKGAAKELAATYLH] was tested, and the MIC [1] was 1.75 µM (≈ 4.7 µg/mL), the MIC [2] was no less than 37.3 µM and the MIC [3] was 28 µM (≈ 75 µg/mL). It also gave an MIC [4] of 3.51 µM (≈ 9.4 µg/mL).
`CC[C@H](C)[C@H](NC(=O)[C@H](CCCCN)NC(=O)[C@H](CCCN=C(N)N)NC(=O)[C@H](Cc1c[nH]c2ccccc12)NC(=O)[C@H](Cc1c[nH]c2ccccc12)NC(=O)[C@@H](N)CCCN=C(N)N)C(=O)N[C@@H](Cc1c[nH]c2ccccc12)C(=O)N[C@@H](CCCCN)C(=O)N[C@@H](Cc1c[nH]c2ccccc12)C(N)=O` [RWWRKIWKW] gave an MIC [5] of 2 µM (≈ 2.89 µg/mL), an MIC [6] of 8 µM (≈ 11.6 µg/mL) and an MIC [7] of 8 µM (≈ 11.6 µg/mL). It also gave an MIC [8] of 2.83 µM (≈ 4.08 µg/mL).
`CC[C@H](C)[C@H](NC(=O)[C@H](C)NC(=O)[C@H](CC(C)C)NC(=O)[C@H](CS)NC(=O)[C@H](Cc1cnc[nH]1)NC(=O)[C@H](C)NC(=O)[C@H](C)NC(=O)[C@H](CS)NC(=O)[C@@H](N)CC(C)C)C(=O)NCC(=O)N[C@@H](CCCN=C(N)N)C(=O)N[C@@H](CCCN=C(N)N)C(N)=O` [LCAAHCLAIGRR] was tested, and the MIC [9] was 14 µM, the MIC (Escherichia coli JM109) was no less than 37.4 µM and the MIC (Staphylococcus aureus) was greater than 49.9 µM.
In the case of `CC[C@H](C)[C@H](NC(=O)[C@H](C)NC(=O)[C@H](CO)NC(=O)[C@H](CC(C)C)NC(=O)[C@@H](NC(=O)[C@H](CCCN=C(N)N)NC(=O)CNC(=O)[C@@H](NC(=O)[C@H](CC(C)C)NC(=O)[C@@H]1CCCN1C(=O)[C@H](CC(C)C)NC(=O)[C@@H](N)Cc1ccccc1)[C@@H](C)CC)C(C)C)C(=O)N[C@@H](CC(C)C)C(N)=O` [FLPLIGRVLSAIL], the MIC [10] is reported as 2.5 µM (≈ 3.53 µg/mL), the MIC [11] is reported as 2.5 µM (≈ 3.53 µg/mL) and the MIC (Staphylococcus capitis 1) is reported as 5 µM (≈ 7.05 µg/mL). For the same compound, the MIC [4] was greater than 40 µM, the MIC [12] was 20 µM (≈ 28.2 µg/mL) and the MIC (Bacillus megaterium Bm11) was 2.5 µM (≈ 3.53 µg/mL).
In the case of `CC(C)C[C@H](NC(=O)CNC(=O)CNC(=O)CNC(=O)[C@H](Cc1ccccc1)NC(=O)[C@H](Cc1c[nH]c2ccccc12)NC(=O)[C@H](CCCN=C(N)N)NC(=O)[C@H](Cc1c[nH]c2ccccc12)NC(=O)[C@H](CCCN=C(N)N)NC(=O)[C@H](Cc1c[nH]c2ccccc12)NC(=O)[C@@H](N)CCCN=C(N)N)C(=O)N[C@@H](CCCCN)C(=O)N[C@@H](CCCN=C(N)N)C(=O)N[C@@H](Cc1ccccc1)C(=O)N[C@@H](CC(C)C)C(=O)N[C@@H](CCCCN)C(=O)N[C@@H](Cc1c[nH]c2ccccc12)C(=O)N[C@@H](Cc1ccccc1)C(=O)N[C@@H](CCCCN)C(=O)N[C@@H](CCCN=C(N)N)C(=O)N[C@@H](Cc1ccccc1)C(N)=O` [RWRWRWFGGGLKRFLKWFKRF], the MIC [13] is reported as 11 µM (≈ 32 µg/mL), the MIC (Streptococcus mutans) is reported as 2.74 µM (≈ 8 µg/mL) and the MIC [14] is reported as 5.49 µM (≈ 16 µg/mL). For the same compound, the MIC [15] was 5.49 µM (≈ 16 µg/mL), the MIC [16] was 2.74 µM (≈ 8 µg/mL) and the MIC [17] was 22 µM (≈ 64 µg/mL).
In the case of `CC[C@H](C)[C@H](N)C(=O)N[C@@H](CC(C)C)C(=O)N1CCC[C@H]1C(=O)N[C@@H](Cc1c[nH]c2ccccc12)C(=O)N[C@@H](CCCCN)C(=O)N[C@@H](Cc1c[nH]c2ccccc12)C(=O)N[C@@H](CCCCN)C(=O)N[C@@H](Cc1ccccc1)C(=O)N[C@@H](Cc1ccccc1)C(=O)N1CCC[C@H]1C(=O)N[C@@H](Cc1c[nH]c2ccccc12)C(=O)N[C@@H](CCCN=C(N)N)C(=O)N[C@@H](CCCN=C(N)N)C(N)=O` [ILPWKWKFFPWRR], the MIC (Escherichia coli JM109) is reported as 1 µM (≈ 1.86 µg/mL).
Compound `NCCCC[C@H](NC(=O)[C@H](Cc1ccccc1)NC(=O)CNC(=O)CNC(=O)CNC(=O)[C@H](Cc1ccccc1)NC(=O)[C@H](Cc1c[nH]c2ccccc12)NC(=O)[C@H](CCCN=C(N)N)NC(=O)[C@H](Cc1c[nH]c2ccccc12)NC(=O)[C@H](CCCN=C(N)N)NC(=O)[C@H](Cc1c[nH]c2ccccc12)NC(=O)[C@@H](N)CCCN=C(N)N)C(=O)N[C@@H](CCCCN)C(=O)N[C@@H](Cc1ccccc1)C(=O)N[C@@H](Cc1c[nH]c2ccccc12)C(=O)N[C@@H](CCCCN)C(=O)N[C@@H](Cc1c[nH]c2ccccc12)C(=O)N[C@@H](Cc1ccccc1)C(=O)N[C@@H](CCCN=C(N)N)C(=O)N[C@@H](CCCN=C(N)N)C(=O)N[C@@H](Cc1ccccc1)C(N)=O` [RWRWRWFGGGFKKFWKWFRRF] has an MIC [13] of 5.3 µM (≈ 16 µg/mL), an MIC (Streptococcus mutans) of 1.87 µM (≈ 5.66 µg/mL) and an MIC [14] of 2.65 µM (≈ 8 µg/mL). For the same compound, the MIC [15] was 2.65 µM (≈ 8 µg/mL), the MIC [16] was 2.65 µM (≈ 8 µg/mL) and the MIC [17] was 21.2 µM (≈ 64 µg/mL).
With `CC[C@H](C)[C@H](NC(=O)[C@@H](N)Cc1ccccc1)C(=O)N[C@@H](CCCCN)C(=O)N[C@@H](Cc1c[nH]c2ccccc12)C(=O)N[C@@H](CCCCN)C(=O)N[C@@H](Cc1ccccc1)C(=O)N[C@@H](CCCN=C(N)N)C(=O)N1CCC[C@H]1C(=O)N[C@@H](Cc1c[nH]c2ccccc12)C(=O)N[C@@H](CCCCN)C(=O)N[C@@H](CCCCN)C(=O)N[C@@H](CCCN=C(N)N)C(=O)N[C@H](C(N)=O)[C@@H](C)O` [FIKWKFRPWKKRT] the MIC [5] was 4 µM (≈ 7.28 µg/mL), the MIC [6] was 8 µM (≈ 14.6 µg/mL) and the MIC [7] was 16 µM (≈ 29.1 µg/mL). The MIC [8] was 22.6 µM (≈ 41.2 µg/mL).
`CC[C@H](C)[C@H](NC(=O)CNC(=O)[C@H](CO)NC(=O)[C@H](CC(C)C)NC(=O)[C@@H](NC(=O)[C@H](CCCN=C(N)N)NC(=O)CNC(=O)[C@@H](NC(=O)[C@H](CC(C)C)NC(=O)[C@@H]1CCCN1C(=O)[C@H](C)NC(=O)[C@@H](N)Cc1ccccc1)[C@@H](C)CC)C(C)C)C(=O)N[C@@H](CC(C)C)C(N)=O` [FAPLIGRVLSGIL] was tested, and the MIC [10] was 10 µM (≈ 13.5 µg/mL), the MIC [11] was 20 µM (≈ 27.1 µg/mL) and the MIC (Staphylococcus capitis 1) was 20 µM (≈ 27.1 µg/mL). The MIC [4] was greater than 40 µM, the MIC [12] was no less than 40 µM and the MIC (Bacillus megaterium Bm11) was 5 µM (≈ 6.77 µg/mL).
Work on `CC[C@H](C)[C@H](NC(=O)CNC(=O)[C@H](CO)NC(=O)[C@H](CC(C)C)NC(=O)[C@H](CC(C)C)NC(=O)CNC(=O)[C@@H](NC(=O)[C@@H](NC(=O)[C@@H]1CCCN1C(=O)CNC(=O)[C@@H](N)Cc1ccccc1)C(C)C)[C@@H](C)CC)C(=O)N[C@@H](CC(C)C)C(=O)N[C@@H](CCCCN)C(=O)N[C@@H](CO)C(=O)N[C@@H](CC(C)C)C(=O)N[C@@H](CC(C)C)C(=O)O` [FGPVIGLLSGILKSLL] yielded an MIC [10] greater than 200 µM, an MIC [18] of no less than 200 µM and an MIC (Botrytis cinerea) of 5 µM (≈ 8.14 µg/mL). It also gave an MIC [19] of no less than 50 µM.
